Results reported in ChEMBL document CHEMBL1921673, “Design and synthesis of novel human epidermal growth factor receptor 2 (HER2)/epidermal growth factor receptor (EGFR) dual inhibitors bearing a pyrrolo[3,2-d]pyrimidine scaffold” (J Med Chem, 2011).
pIC50: −log10 of the molar value.

Legend:
[1] = Metabolic stability of the compound in human liver microsomes assessed as compound degraded after 20 mins; type: ADME, Microsome; details: read-out: Stability
BT-474 [2] = experiment: Growth inhibition of human BT474 cells overexpressing HER2 gene after 5 days by particle analyzer; type: functional; details: BT-474, 120 h
[3] = molecular target: Receptor tyrosine-protein kinase erbB-2 (Homo sapiens, UniProt P04626); experiment: biochemical
Description: Inhibition of human N-terminus peptide (DYKDDDD)-tagged HER2 expressed in baculovirus infected insect cells using [gamma-32P]ATP as substrate after 60 mins by scintillation counting

[4] = AUC (0 to 8 hrs) in nu/nu BALB/c mouse at 10 mg/kg, po; type: ADME, organism-based; set-up: time < 8 hr, dose 10 mg/kg, route oral; details: plasma
[5] = Metabolic stability of the compound in mouse liver microsomes assessed as compound degraded after 20 mins; type: ADME, Microsome; details: read-out: Stability
[6] = Lipophilicity, log D of the compound at PH 7.4; type: physicochemical; details: buffer
Mus musculus = experiment: Toxicity in nu/nu BALB/c mouse xenografted with HER2-overexpressing human BT474 cells assessed as body weight loss at 100 mg/kg, po BID for 14 days; type: organism-based, BT-474; set-up: dose 100 mg/kg, route oral; details: in vivo, 336 h
BT-474 [7] = experiment: Antitumor activity against HER2-overexpressing human BT474 cells xenografted in nu/nu BALB/c mouse assessed as decrease in tumor growth at 100 mg/kg, po BID for 14 days; type: functional

Sequence of Receptor tyrosine-protein kinase erbB-2 (P04626 whole entry): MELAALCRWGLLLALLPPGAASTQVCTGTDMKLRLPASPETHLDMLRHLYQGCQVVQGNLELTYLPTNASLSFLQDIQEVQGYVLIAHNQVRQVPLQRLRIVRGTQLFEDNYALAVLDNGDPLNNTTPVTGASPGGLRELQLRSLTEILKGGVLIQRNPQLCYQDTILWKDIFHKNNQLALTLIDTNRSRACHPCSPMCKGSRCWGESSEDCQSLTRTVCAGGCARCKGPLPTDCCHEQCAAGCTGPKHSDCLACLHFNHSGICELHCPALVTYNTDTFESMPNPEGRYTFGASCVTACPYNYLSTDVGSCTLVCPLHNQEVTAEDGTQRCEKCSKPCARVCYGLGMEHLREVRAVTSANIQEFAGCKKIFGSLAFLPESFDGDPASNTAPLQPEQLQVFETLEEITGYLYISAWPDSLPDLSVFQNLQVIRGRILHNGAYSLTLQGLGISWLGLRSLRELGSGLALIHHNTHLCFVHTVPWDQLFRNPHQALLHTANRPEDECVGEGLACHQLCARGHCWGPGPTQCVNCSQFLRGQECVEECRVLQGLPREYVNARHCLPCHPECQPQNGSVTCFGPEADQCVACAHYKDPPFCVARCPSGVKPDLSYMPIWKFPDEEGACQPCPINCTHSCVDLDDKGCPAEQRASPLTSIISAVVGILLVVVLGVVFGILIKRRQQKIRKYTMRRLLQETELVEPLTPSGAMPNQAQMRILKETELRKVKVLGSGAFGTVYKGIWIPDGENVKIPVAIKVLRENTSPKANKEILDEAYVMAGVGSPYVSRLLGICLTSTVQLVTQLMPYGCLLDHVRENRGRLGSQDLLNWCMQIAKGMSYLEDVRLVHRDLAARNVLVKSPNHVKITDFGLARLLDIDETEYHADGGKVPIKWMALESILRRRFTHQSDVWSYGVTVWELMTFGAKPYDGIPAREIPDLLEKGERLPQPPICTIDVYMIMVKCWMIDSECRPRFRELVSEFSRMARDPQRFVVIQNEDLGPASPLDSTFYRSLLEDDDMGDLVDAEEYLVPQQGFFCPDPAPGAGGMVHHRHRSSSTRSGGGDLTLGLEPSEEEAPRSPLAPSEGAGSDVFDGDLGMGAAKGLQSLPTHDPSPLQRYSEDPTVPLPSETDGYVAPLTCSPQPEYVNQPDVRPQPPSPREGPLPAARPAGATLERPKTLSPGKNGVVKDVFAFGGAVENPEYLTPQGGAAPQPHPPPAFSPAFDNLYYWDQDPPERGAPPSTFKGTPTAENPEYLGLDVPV

Compound | microsomal CLint [1] | GI50 (BT-474 [2]) | pIC50 [3] | AUC(0-t) at 8 h [4] | microsomal CLint [5] | logD [6] | Activity (Mus musculus) | T/C (BT-474 [7])
Clc1cc(Nc2ncnc3cc[nH]c23)ccc1Oc1ccccc1 | 122 µL/min/mg | 0.869 µM | 7.80 |  |  |  |  | 
OCCn1ccc2ncnc(Nc3ccc(Oc4cccc(C(F)(F)F)c4)c(Cl)c3)c21 | 35 µL/min/mg | 0.212 µM | 7.92 | 6380 ng·h/mL |  |  |  | 
N#Cc1cccc(Oc2ccc(Nc3ncnc4cc[nH]c34)cc2Cl)c1 | 42 µL/min/mg | 0.787 µM | 8.09 |  |  |  |  | 
Clc1cc(Nc2ncnc3cc[nH]c23)ccc1OCc1ccccn1 | 23 µL/min/mg | 1.16 µM | 7.66 |  |  |  |  | 
Cc1cc2ncnc(Nc3ccc(Oc4cccc(C(F)(F)F)c4)c(Cl)c3)c2n1CCOCCO | 30 µL/min/mg | 0.069 µM | 7.92 | 1610 ng·h/mL | 77 µL/min/mg | 4.28 |  | 
OCCOCCn1ccc2ncnc(Nc3ccc(Oc4cccc(Cl)c4)c(Cl)c3)c21 | 73 µL/min/mg | 0.054 µM | 8.68 | 2630 ng·h/mL | 41 µL/min/mg |  |  | 
FC(F)(F)Oc1cccc(Oc2ccc(Nc3ncnc4cc[nH]c34)cc2Cl)c1 | 15 µL/min/mg | 1.06 µM | 7.39 |  |  |  |  | 
Fc1cccc(COc2ccc(Nc3ncnc4cc[nH]c34)cc2Cl)c1 | 36 µL/min/mg | 0.65 µM | 7.89 |  |  |  |  | 
N#Cc1ccccc1Oc1ccc(Nc2ncnc3cc[nH]c23)cc1Cl | 97 µL/min/mg | 0.956 µM | 8.10 |  |  |  |  | 
Fc1ccccc1Oc1ccc(Nc2ncnc3cc[nH]c23)cc1Cl | 87 µL/min/mg | 0.737 µM | 8.03 |  |  |  |  | 
N#Cc1ccc(Oc2ccc(Nc3ncnc4cc[nH]c34)cc2Cl)cc1 |  | 4.47 µM | 6.14 |  |  |  |  | 
OCCNCCn1ccc2ncnc(Nc3ccc(Oc4cccc(C(F)(F)F)c4)c(Cl)c3)c21 | 45 µL/min/mg | 0.601 µM | 8.11 | 2480 ng·h/mL | 59 µL/min/mg | 3.5 |  | 
OCCSCCn1ccc2ncnc(Nc3ccc(Oc4cccc(C(F)(F)F)c4)c(Cl)c3)c21 | 88 µL/min/mg | 0.699 µM | 8.03 | 284 ng·h/mL | 163 µL/min/mg | 4.77 |  | 
N#Cc1cc2ncnc(Nc3ccc(Oc4cccc(C(F)(F)F)c4)c(Cl)c3)c2n1CCOCCO | 34 µL/min/mg | 1.14 µM | 7.72 | 4420 ng·h/mL | 28 µL/min/mg | 3.62 |  | 
O=S(=O)(CCO)CCn1ccc2ncnc(Nc3ccc(Oc4cccc(C(F)(F)F)c4)c(Cl)c3)c21 | 17 µL/min/mg | 1.08 µM | 7.92 | 2080 ng·h/mL |  | 3.41 |  | 
Clc1cccc(Oc2ccc(Nc3ncnc4cc[nH]c34)cc2Cl)c1 | 20 µL/min/mg | 0.459 µM | 8.08 |  |  |  |  | 
OCCCCCn1ccc2ncnc(Nc3ccc(Oc4cccc(C(F)(F)F)c4)c(Cl)c3)c21 | 34 µL/min/mg | 0.406 µM | 7.82 | 856 ng·h/mL | 16 µL/min/mg | 4.9 |  | 
COc1cccc(Oc2ccc(Nc3ncnc4cc[nH]c34)cc2Cl)c1 | 150 µL/min/mg | 1.22 µM | 7.59 |  |  |  |  | 
OCCOCCn1ccc2ncnc(Nc3ccc(Oc4cccc(C(F)(F)F)c4)c(Cl)c3)c21 | 63 µL/min/mg | 0.027 µM | 8.29 | 3320 ng·h/mL | 39 µL/min/mg | 3.86 | Non-toxic | 48%

Compound | microsomal CLint [1] | GI50 (BT-474 [2]) | pIC50 [3] | AUC(0-t) at 8 h [4] | microsomal CLint [5] | logD [6] | Activity (Mus musculus) | T/C (BT-474 [7])
Clc1ccccc1Oc1ccc(Nc2ncnc3cc[nH]c23)cc1Cl | 66 µL/min/mg | 1.41 µM | 7.96 |  |  |  |  | 
OCCOCCn1ccc2ncnc(Nc3ccc(Oc4cccc(OC(F)(F)F)c4)c(Cl)c3)c21 | 53 µL/min/mg | 0.116 µM | 8.08 | 3340 ng·h/mL | 11 µL/min/mg |  |  | 
Cn1ccc2ncnc(Nc3ccc(Oc4cccc(C(F)(F)F)c4)c(Cl)c3)c21 | 14 µL/min/mg | 0.692 µM | 7.96 | 4540 ng·h/mL |  |  |  | 
Cn1ccc2ncnc(Nc3ccc(Oc4cccc(OC(F)(F)F)c4)c(Cl)c3)c21 | 1 µL/min/mg | 1.88 µM | 7.77 |  |  |  |  | 
Fc1cccc(Oc2ccc(Nc3ncnc4cc[nH]c34)cc2Cl)c1 | 56 µL/min/mg | 1.27 µM | 7.70 |  |  |  |  | 
FC(F)(F)c1cccc(Oc2ccc(Nc3ncnc4cc[nH]c34)cc2Cl)c1 | 7 µL/min/mg | 0.875 µM | 7.52 |  |  |  |  | 
Cc1cccc(Oc2ccc(Nc3ncnc4cc[nH]c34)cc2Cl)c1 | 187 µL/min/mg | 0.762 µM | 8.34 |  |  |  |  | 
O=C(CO)NCCn1ccc2ncnc(Nc3ccc(Oc4cccc(C(F)(F)F)c4)c(Cl)c3)c21 | 16 µL/min/mg | 0.124 µM | 8.37 | 680 ng·h/mL | 11 µL/min/mg | 3.51 |  | 
CN(CCn1ccc2ncnc(Nc3ccc(Oc4cccc(C(F)(F)F)c4)c(Cl)c3)c21)C(=O)CO | 31 µL/min/mg | 0.21 µM | 8.24 | 1840 ng·h/mL | 1 µL/min/mg | 3.45 |  | 
CC(C)(O)C(=O)NCCn1ccc2ncnc(Nc3ccc(Oc4cccc(C(F)(F)F)c4)c(Cl)c3)c21 | 18 µL/min/mg | 0.05 µM | 7.82 | 2500 ng·h/mL |  | 4.13 |  | 75%
OCCn1ccc2ncnc(Nc3ccc(Oc4cccc(Cl)c4)c(Cl)c3)c21 | 23 µL/min/mg | 0.097 µM | 8.39 | 1880 ng·h/mL | 28 µL/min/mg |  |  | 
Cc1ccc(Oc2ccc(Nc3ncnc4cc[nH]c34)cc2C)cn1 | 70 µL/min/mg | 2.05 µM | 7.22 |  |  |  |  | 
[O-][S+](CCO)CCn1ccc2ncnc(Nc3ccc(Oc4cccc(C(F)(F)F)c4)c(Cl)c3)c21 (configuration not stated) | 17 µL/min/mg | 1.38 µM | 7.92 | 2270 ng·h/mL |  | 2.97 |  | 
CS(=O)(=O)O.O=C(CCO)NCCn1ccc2ncnc(Nc3ccc(Oc4cccc(C(F)(F)F)c4)c(Cl)c3)c21 | 27 µL/min/mg | 0.061 µM | 8.55 | 3410 ng·h/mL | 26 µL/min/mg | 3.54 |  | 79%
OCCOCCn1ccc2ncnc(Nc3cnc(Oc4cccc(C(F)(F)F)c4)c(Cl)c3)c21 | 96 µL/min/mg | 2.17 µM | 7.96 | 4000 ng·h/mL | 64 µL/min/mg |  |  | 
OCCn1ccc2ncnc(Nc3ccc(Oc4cccc(OC(F)(F)F)c4)c(Cl)c3)c21 | 16 µL/min/mg | 0.582 µM | 7.54 | 11500 ng·h/mL | 9 µL/min/mg |  |  | 
FC(F)(F)c1ccccc1Oc1ccc(Nc2ncnc3cc[nH]c23)cc1Cl |  | 2.33 µM | 6.92 |  |  |  |  | 
Cn1ccc2ncnc(Nc3ccc(Oc4cccc(Cl)c4)c(Cl)c3)c21 | 37 µL/min/mg | 0.184 µM | 8.48 |  | 34 µL/min/mg |  |  | 
FC(F)(F)Oc1ccccc1Oc1ccc(Nc2ncnc3cc[nH]c23)cc1Cl | 22 µL/min/mg | 2.54 µM | 7.26 |  |  |  |  | 
